Measurements published in patent US20120029048A1, “PHENYLALKYL N-HYDROXYUREAS FOR TREATING LEUKOTRIENE RELATED PATHOLOGIES” (VIA Pharmaceuticals, Inc., priority 2010, published 2012).

Assays:
leukotriene B4 (LTB4) = experiment: Ex vivo LTB4 in blood by ELISA, Phase 2 ACS study; design: species or system human; conditions: trough drug levels
Method: (§1) In this randomized, placebo-controlled study, 191 patients were randomized 3 weeks after an acute coronary syndrome (ACS) to receive 25, 50, or 100 mg N-[3-[5-[(4-fluorophenyl)methyl]-2-thienyl]-1-methyl-2-propynyl]-N-hydroxyurea or placebo qd for 12 weeks. Baseline assessments were performed at the start of treatment and these baseline results were compared with repeat assessments during various follow-up periods during the treatment study. A subset of 93 patients who had undergone a Multidetector (64 slice coronary) Computerized Tomography (MDCT) examination at baseline continued on study medication for a total of 24 weeks and underwent a repeat scan. Patients received a single daily oral dose of 25 mg, 50 mg, or 100 mg of N-[3-[5-[(4-fluorophenyl)methyl]-2-thienyl]-1-methyl-2-propynyl]-N-hydroxyurea or matching placebo by administering 2 capsules as prepared in Example 3 for 12 weeks or 24 weeks. Blood samples for measurement of ex vivo leukotriene B4 (LTB4) and high sensitivity C reactive protein (hsCRP), and urine samples for measurement of urinary leukotriene E4 (LTE4) levels were collected pre-dose on weeks 2, 6 and 12. Blood samples were assayed for ex vivo LTB4 by enzyme-linked immunosorbent assay, and for hsCRP by an immunoturbidimetric method. Urine samples were assayed for LTE4 using Liquid Chromatography with Tandem Mass Spectrometry (LC/MS/MS).

leukotriene E4 (LTE4) = experiment: Urinary LTE4 by LC/MS/MS, Phase 2 ACS study; type: in vivo, human; conditions: all doses (25, 50, 100 mg qd), ACS patients
Method: as §1

[1] = test system: high sensitivity C reactive protein (hsCRP); experiment: hsCRP in blood by immunoturbidimetric method, Phase 2 ACS study; type: in vivo, human; conditions: for hsCRP change from baseline, LSMEANS geometric mean (%) / hsCRP change from baseline, Median (25-75): 12 weeks
Method: as §1

non-calcified plaque = experiment: Serial MDCT coronary plaque imaging, Phase 2 ACS study, 24-week substudy; type: in vivo, human; conditions: all three doses, 24 weeks, compared with placebo
Method: In this randomized, placebo-controlled study, 191 patients were randomized 3 weeks after an acute coronary syndrome (ACS) to receive 25, 50, or 100 mg N-[3-[5-[(4-fluorophenyl)methyl]-2-thienyl]-1-methyl-2-propynyl]-N-hydroxyurea or placebo qd for 12 weeks. Baseline assessments were performed at the start of treatment and these baseline results were compared with repeat assessments during various follow-up periods during the treatment study. A subset of 93 patients who had undergone a Multidetector (64 slice coronary) Computerized Tomography (MDCT) examination at baseline continued on study medication for a total of 24 weeks and underwent a repeat scan. For those patients who continued on study medication for a total of 24 weeks, contrast-enhanced CT examination was performed at baseline and after 24 weeks of treatment with a 64-slice scanner (GE LightSpeed VCT; GE Healthcare, USA). Target plaque lesions were defined prospectively as non-calcified plaque with measurable low-density components of <60 HU situated in the proximal or middle portion of either the left main, left anterior ascending, left circumflex or right coronary artery causing at least 20% luminal stenosis. Prior to analysis of results, patients had their MDCT examinations evaluated twice by the same reviewer and also by a second reviewer for evaluation of intraobserver and interobserver variability of measurements.

LTB4 = experiment: Ex vivo LTB4 in blood by ELISA, Phase 2 CEA study; design: species or system human; conditions: 100 mg qd oral 12 weeks, CEA patients, compared with placebo (p<0.0001)
Method: (§2) In this randomized, double blind, placebo-controlled study, 50 patients with significant carotid artery stenosis (60-90%) were treated once daily for 12 weeks with orally administered 100 mg N-[3-[5-[(4-fluorophenyl)methyl]-2-thienyl]-1-methyl-2-propynyl]-N-hydroxyurea or placebo prior to undergoing CEA, at which time endarterectomy tissue (plaque) was collected and stored for subsequent tissue analysis. Baseline assessments are performed at the start of treatment and these baseline results were compared with repeat assessments during various follow-up periods of treatment. The treatment was conducted for twelve weeks at which time these baseline assessments were performed and compared. Patients received a total single daily oral dose of 100 mg of N-[3-[5-[(4-fluorophenyl)methyl]-2-thienyl]-1-methyl-2-propynyl]-N-hydroxyurea or matching placebo by administering 2 capsules as prepared in Example 3 for 12 weeks. Blood samples for measurement of ex vivo LTB4 and hsCRP, and urine samples for measurement of urinary LTE4 levels were collected pre-dose on weeks 2, 6 and 12. […] LTB4, LTE4 and hsCRP biomarker data were assessed using change from baseline comparisons and an ANCOVA was used to compare the treatment groups where the covariate was the baseline value of the outcome measure. […]

LTE4 = experiment: Urinary LTE4 by LC/MS/MS, Phase 2 CEA study; type: in vivo, human; conditions: 100 mg qd oral 12 weeks, CEA patients, compared with placebo (p<0.01)
Method: as §2

hsCRP = hsCRP in blood by immunoturbidimetric method, Phase 2 CEA study; type: in vivo, human; conditions: 100 mg qd oral 12 weeks, CEA patients, compared with placebo (p<0.01)
Method: as §2

[2] = test system: carotid plaques with rupture-prone histological subtypes; experiment: Relative necrotic core thickness in carotid plaques, Phase 2 CEA study; type: in vivo, human; conditions: rupture-prone plaque subtypes, 100 mg qd 12 weeks, compared with placebo (p<0.02)
Method: (§3) In this randomized, double blind, placebo-controlled study, 50 patients with significant carotid artery stenosis (60-90%) were treated once daily for 12 weeks with orally administered 100 mg N-[3-[5-[(4-fluorophenyl)methyl]-2-thienyl]-1-methyl-2-propynyl]-N-hydroxyurea or placebo prior to undergoing CEA, at which time endarterectomy tissue (plaque) was collected and stored for subsequent tissue analysis. Baseline assessments are performed at the start of treatment and these baseline results were compared with repeat assessments during various follow-up periods of treatment. The treatment was conducted for twelve weeks at which time these baseline assessments were performed and compared.
(§4) At the end of 12 weeks treatment with 100 mg of N-[3-[5-[(4-fluorophenyl)methyl]-2-thienyl]-1-methyl-2-propynyl]-N-hydroxyurea, patients underwent CEA, at which time endarterectomy tissue (plaque) was collected, fixed in 10% formalin and paraffin blocks, and stored for subsequent tissue analysis. […] A portion of each of the plaques was also analyzed for inflammatory gene expression after isolation of total RNA and reverse transcription using a TaqMan® High Capacity cDNA assay.
(§5) LTB4, LTE4 and hsCRP biomarker data were assessed using change from baseline comparisons and an ANCOVA was used to compare the treatment groups where the covariate was the baseline value of the outcome measure. […]

[3] = test system: inflammatory genes IL-6, IL 8, IL-10, MMP9, I-kappa-B, osteopontin; experiment: Inflammatory gene expression in carotid plaques (TaqMan), Phase 2 CEA study; type: in vivo, human; conditions: rupture-prone plaque subtypes, 100 mg qd 12 weeks
Method: as §3, §4, §5

[4] = 12-week main population, 25 mg qd oral
[5] = 12-week main population, 50 mg qd oral
[6] = 12-week main population, 100 mg qd oral
[7] = 24-week CT substudy population, 25 mg qd oral
[8] = 24-week CT substudy population, 50 mg qd oral
[9] = 24-week CT substudy population, 100 mg qd oral

## CC(C#Cc1ccc(Cc2ccc(F)cc2)s1)N(O)C(N)=O (stereo not shown) [VIA-2291, N-[3-[5-[(4-fluorophenyl)methyl]-2-thienyl]-1-methyl-2-propynyl]-N-hydroxyurea]
Leukotriene B4 (LTB4); 100-mg group
  patients with approximately 80% inhibition of ex vivo LTB4: > 90 % of patients
Leukotriene B4 (LTB4); 100-mg group, ACS patients
  inhibition of ex vivo LTB4: approximately 80%
Leukotriene B4 (LTB4); all doses (25, 50, 100 mg qd), P<0.0001, dose-dependent
  effect on ex vivo leukotriene LTB4: significantly reduced
Leukotriene E4 (LTE4)
  effect on urinary leukotriene LTE4: significantly reduced
[1]; 100 mg group (P<0.01)
  change in hsCRP within group between 12 and 24 weeks: significant reduction
[1]; 12-week main population, 25 mg qd oral (n = 44)
  hsCRP at 12 weeks, Median (25-75): 1.1 (0.6, 2.5)
[1]; 12-week main population, 50 mg qd oral (n = 38)
  hsCRP at 12 weeks, Median (25-75): 1.3 (0.4, 2.7)
[1]; 12-week main population, 100 mg qd oral (n = 38)
  hsCRP at 12 weeks, Median (25-75): 0.6 (0.3, 2.5)
[1]; [4]
  hsCRP change from baseline, LSMEANS geometric mean (%): −25.32%
  hsCRP change from baseline, Median (25-75): −0.2 (−1.1, 0.4)
[1]; [5]
  hsCRP change from baseline, LSMEANS geometric mean (%): −29.13%
  hsCRP change from baseline, Median (25-75): −0.1 (−1.9, 0.1)
[1]; [6]
  hsCRP change from baseline, LSMEANS geometric mean (%): −38.99%
  hsCRP change from baseline, Median (25-75): −0.3 (−0.8, 0.1)
[1]; [7]
  hsCRP 12 weeks change from baseline, LSMEANS geometric mean (%): −24.82%
  hsCRP 12 weeks change from baseline, Median (25-75): −0.1 (−1.5, 0.8)
  hsCRP 24 weeks change from baseline, LSMEANS geometric mean (%): −32.91%
  hsCRP 24 weeks change from baseline, Median (25-75): −0.4 (−1.2, 0.3)
  hsCRP at 24 weeks, Median (25-75): 1.2 (0.7, 2.1)
[1]; 24-week CT substudy population, 25 mg qd oral (n = 23)
  hsCRP at 12 weeks, Median (25-75): 1.1 (0.6, 2.4)
[1]; [8]
  hsCRP 12 weeks change from baseline, LSMEANS geometric mean (%): −22.71%
  hsCRP 12 weeks change from baseline, Median (25-75): −0.1 (−5.0, 0.6)
  hsCRP 24 weeks change from baseline, LSMEANS geometric mean (%): −27.05%
  hsCRP 24 weeks change from baseline, Median (25-75): −0.2 (−3.7, 0.2)
  hsCRP at 24 weeks, Median (25-75): 1.5 (0.6, 2.6)
[1]; 24-week CT substudy population, 50 mg qd oral (n = 20)
  hsCRP at 12 weeks, Median (25-75): 1.7 (0.4, 4.3)
[1]; [9]
  hsCRP 12 weeks change from baseline, LSMEANS geometric mean (%): −39.05%
  hsCRP 12 weeks change from baseline, Median (25-75): −0.3 (−2.4, 0.1)
  hsCRP 24 weeks change from baseline, LSMEANS geometric mean (%): −67.16%
  hsCRP 24 weeks change from baseline, Median (25-75): −0.4 (−3.9, −0.2)
  hsCRP at 24 weeks, Median (25-75): 0.3 (0.2, 0.9)
[1]; 24-week CT substudy population, 100 mg qd oral (n = 18)
  hsCRP at 12 weeks, Median (25-75): 0.6 (0.4, 2.0)
[1]; 100-mg group at 24 weeks, compared with placebo (P=0.0002)
  decrease in hsCRP: 67%
non-calcified plaque
  effect on new plaque lesions in serial MDCT images: reduced
  effect on non-calcified plaque volume in serial MDCT images: reduced
LTB4
  reduction of ex vivo LTB4: approximately 90%
LTE4
  reduction of urine LTE4: 65%
hsCRP
  reduction of hsCRP: 2.0 mg/L
[2]
  reduction of relative necrotic core thickness: 21%
[3]
  expression of inflammatory genes IL-6, IL 8, IL-10, MMP9, I-kappa-B, osteopontin: reduction in expression
